In patent US8912121B2, “Herbicidal compositions comprising 4-amino-3-chloro-5-fluoro-6-(4-chloro-2-fluoro-3-methoxyphenyl)pyridine-2-carboxylic acid or a derivative thereof and certain PS II inhibitors” (Dow Agrosciences LLC, priority 2012, dated 2014):
“And” between values parts separate entries of the source, which are not always exact repeats. Equal entries are not always repeated.

What was measured:
[1] = tested on: ECHOR (Echinochloa oryzoides, early watergrass); assay: In-water applied mixtures, transplanted paddy rice, greenhouse; type: in vivo, Echinochloa oryzoides (Ard.) Fritsch; settings: 19 DAA
Procedure: Weed seeds or nutlets of the desired test plant species were planted in puddled soil (mud) prepared by mixing a shredded, non-sterilized mineral soil (50.5 percent silt, 25.5 percent clay, and 24 percent sand, with a pH of about 7.6 and an organic matter content of about 2.9 percent) and water at a 1:1 volumetric ratio. The prepared mud was dispensed in 365 mL aliquots into 16-ounce (oz.) non-perforated plastic pots with a surface area of 86.59 square centimeters (cm^2) leaving a headspace of 3 centimeters (cm) in each pot Mud was allowed to dry overnight prior to planting or transplanting. Rice seeds were planted in Sun Gro MetroMix® 306 planting mixture, which typically has a pH of 6.0 to 6.8 and an organic matter content of about 30 percent, in plastic plug trays. Seedlings at the second or third leaf stage of growth were transplanted into 840 mL of mud contained in 32-oz. non-perforated plastic pots with a surface area of 86.59 cm^2 4 days prior to herbicide application. The paddy was created by filling the headspace of the pots with 2.5 to 3 cm of water. When required to ensure good germination and healthy plants, a fungicide treatment and/or other chemical or physical treatment was applied. The plants were grown for 4-22 days in a greenhouse with an approximate 14 h photoperiod which was maintained at about 29° C during the day and 26° C. during the night. Nutrients were added as Osmocote® (19:6:12, N:P:K+ minor nutrients) at 2 g per 16-oz. pot and 4 g per 32-oz. pot. Water was added on a regular basis to maintain the paddy flood, and supplemental lighting was provided with overhead metal halide 1000-Watt lamps as necessary. The plants were employed for testing when they reached the first through fourth true leaf stage.
Treatments consisted of the acid or esters of 4-amino-3-chloro-5-fluoro-6-(4-chloro-2-fluoro-3-methoxy-phenyl)pyridine-2-carboxylic acid (compound A) each formulated as an SC (suspension concentrate) and various herbicidal components alone and in combination. Forms of compound A were applied on an acid equivalent basis.
Other herbicidal components were applied on an active ingredient basis and included photosystem II (PSII)-inhibits propanil formulated as […] bentazon-sodium formulated as Basagran®, and simetryne (technical grade material).
Treatment requirements for each compound or herbicidal component were calculated based upon the rates being tested, the concentration of active ingredient or acid equivalent in the formulation, an application volume of 2 mL per component per pot, and an application area of 86.59 cm^2 per pot.
For formulated compounds, a measured amount was placed in an individual 100 or 200 mL glass vial and was dissolved in a volume of 1.25% (v/v) Agri-Dex® crop oil concentrate to obtain application solutions.
For technical grade compounds, a weighed amount was placed in an individual 100 to 200 mL glass vial and was dissolved in a volume of acetone to obtain concentrated stock solutions. […] The concentrated stock solutions obtained were diluted with an equivalent volume of an aqueous mixture containing 2.5% (v/v) crop oil concentrate so that the final application solutions contained 1.25% (v/v) crop oil concentrate.
Applications were made by injecting with a pipetter appropriate amounts of the application solutions, individually and sequentially, into the aqueous layer of the paddy. Control plants were treated in the same manner with the solvent blank. Applications were made so that all treated plant material received the same concentrations of acetone and crop oil concentrate.
The treated plants and control plants were placed in a greenhouse as described above and water was added as needed to maintain a paddy flood. After approximately 3 weeks the condition of the test plants as compared with that of the untreated plants was determined visually and scored on a scale of 0 to 100 percent where 0 corresponds to no injury or growth inhibition and 100 corresponds to complete kill. […]

[2] = tested on: COMBE (Commelina benghalensis, Benghal dayflower); assay: Postemergence foliar-applied mixtures, direct seeded rice, greenhouse; type: in vivo, Commelina benghalensis L.; settings: 20 DAA
Description: Seeds or nutlets of the desired test plant species were planted in a soil matrix prepared by mixing a loam or sandy loam soil (e.g., 28.6 percent silt, 18.8 percent clay, and 52.6 percent sand, with a pH of about 5.8 and an organic matter content of about 1.8 percent) and calcareous grit in an 80 to 20 ratio. The soil matrix was contained in plastic pots with a volume of 1 quart and a surface area of 83.6 square centimeters (cm^2). When required to ensure good germination and healthy plants, a fungicide treatment and/or other chemical or physical treatment was applied. The plants were grown for 8-22 days in a greenhouse with an approximate 14 h photoperiod which was maintained at about 29° C. during the day and 26° C. during the night. Nutrients (Peters Excel® 15-5-15 5-Ca 2-Mg and iron chelate) were applied in the irrigation solution as needed and water was added on a regular basis. Supplemental lighting was provided with overhead metal halide 1000-Watt lamps as necessary. The plants were employed for testing when they reached the first through fourth true leaf stage. […]
Treatment requirements were calculated based upon the rates being tested, the concentration of active ingredient or acid equivalent in the formulation, and a 12 mL application volume at a rate of 187 L/ha.
For treatments comprised of formulated compounds, measured amounts of compounds were placed individually in 25 mL glass vials and diluted in a volume of 1.25% (v/v) Agri-Dex® crop oil concentrated to obtain 12× stock solutions. […]
For treatments comprised of formulated and technical compounds, weighed amounts of the technical materials were placed individually in 25 mL glass vials and dissolved in a volume of 97:3 v/v acetone/DMSO to obtain 12× stock solutions, and measured amounts of the formulated compounds were placed individually in 25 mL glass vials and diluted in a volume of 1.5% (v/v) crop oil concentrate or water to obtain 12× stock solutions. […]

| SMILES | Visual Weed Control (%) Obs ([1]; 8 g ae/ha) | Visual Weed Control (%) Obs ([1]; 16 g ae/ha) | Visual Weed Control (%) Obs ([1]; 32 g ae/ha) | Visual Weed Control (%) Obs ([2]; 6 g ae/ha) | Visual Weed Control (%) Obs ([2]; 3360 g ai/ha) |
| --- | --- | --- | --- | --- | --- |
| COc1c(Cl)ccc(-c2nc(C(=O)OCc3ccccc3)c(Cl)c(N)c2F)c1F [Compound A Benzyl Ester, benzyl ester of 4-amino-3-chloro-5-fluoro-6-(4-chloro-2-fluoro-3-methoxy-phenyl)pyridine-2-carboxylic acid] | 10% | 20% | 25% | 80% and 70% |  |
| CCC(=O)Nc1ccc(Cl)c(Cl)c1 [Propanil, N-(3,4-dichlorophenyl)propanamide, reference compound] |  |  |  |  | 10% |
